This is an account of results in patent US12030908B2, “Antimicrobial compounds, compositions, and uses thereof” (Lakewood Amedex, Inc., priority 2017, dated 2024).

As usually defined, the MIC is the smallest concentration in the dilution series that meets the test's criterion for growth inhibition. Lower therefore signals a more susceptible organism.

In assay [1] the test system is Escherichia coli (strain CFT073, TPPS 1041). The experiment in a line: Initial urinary tract infection model in BALB/c mice, transurethral treatment (Example 9). The format is in vivo. The note with it: pH 3.5, 1025 mg/kg transurethral. An excerpt:
Female BALB/c mice (20-22 g) ordered from Envigo are acclimated to housing conditions and handled in accordance with Animal Use Protocol (AUP) number TP-08. Animals are fed irradiated Teklad Global 29 18 Rodent Diet and water ad libitum. Mice are housed 6/cage in static cages with irradiated ⅛″ Teklad corn cobbedding 7902 inside bioBubble® clean rooms that provide H.E.P.A filtered air into the bubble environment at 100 complete air changes per hour. The environment is controlled to a temperature range of 74°±4° F. and a humidity range of 30-70%. All procedures carried out in this experiment are conducted in compliance with the laws, regulations, and guidelines of the National Institutes of Health and with the approval of the TransPharm Preclinical Solutions Animal Care and Use Committee.
A clinical isolate of Escherichia coli (strain CFT073, TPPS 1041) are procured from the University of Michigan.
The organism is grown overnight at 37° C. in ambient atmosphere on trypticase soy agar plates supplemented with 5% sheep blood cells. The culture is aseptically swabbed and transferred to tubes of trypticase soy broth. The optical density is determined at 600 nm. The culture is diluted to provide an inoculum of approximately 7.5 log10 CFU per mouse in a volume of 30 μL. Instillation of the bacterial challenge constituted time 0 hour for the study. Inoculum counts are estimated before inoculation by optical density and confirmed after inoculation by dilution and back counts.
One hour prior to bacterial challenge, water is removed from animal cages. […]
The primary endpoint used to assess progress of the infection is mean bacterial burden per gram of urinary bladder tissue. […] Colony forming units (CFU) are enumerated and the total bacterial burden per gram of urinary bladder tissue homogenate is calculated.
The geometric mean CFU, along with standard error of the mean (SEM), are calculated using Microsoft Excel and bar charts are prepared for the data using GraphPad Prism v. […]

The next assay has as its system P. aeruginosa. The experiment in a line: Broth microdilution MIC at incremental pH, P. aeruginosa. The format is cell-based. Here is the method:
MIC testing is conducted using the broth (Mueller Hinton Broth) microdilution procedures relevant to each organism group as established by the Clinical and Laboratory Standards Institute (CLSI; 3-7). MIC plates are prepared in accordance with CLSI (3-7). To prepare the test plates, automated liquid handlers are used to conduct serial dilutions and liquid transfers. Automated liquid handlers utilized in this study include the Multidrop 384 (Labsystems, Helsinki, Finland) and the Biomek 2000 (Beckman Coulter, Fullerton CA). The solution is diluted to desired pH using 1 M Citric Acid or 1 M NaOH buffer. A standardized inoculum of each test organism is prepared per CLSI methods (3, 5-7) to equal a 0.5 McFarland standard in the appropriate media followed by an additional 1:20 dilution (1:10 for anaerobes).
The plates are then inoculated with 10 μL of the diluted 0.5 McFarland suspension using the Biomek 2000 from low to high drug concentration, resulting in a final concentration of approximately 5×10^5 CFU/mL per well. An un-inoculated plate is incubated for the purpose of assessing solubility of the drug in the test media. The plates are stacked 3 to 4 high, covered with a sterile lid on the top plate, and incubated for 18 to 24 hours according to CLSI. The MIC is recorded as the lowest concentration of respective compound that inhibited visible growth of the organism.
On the technique in general: In broth dilution the organism is exposed to a series of concentrations in liquid medium.

Each structure is given as a SMILES string. A value given as a limit tells only on which side of the number the result lay.

Turning to `CCCCOP(=O)(O)OC[C@H]1O[C@@H](n2ccc(N)nc2=O)C[C@@H]1OP(=O)(O)OCCCC` [Nu-8, sodium ((2R,3S,5R)-5-(4-amino-2-oxopyrimidin-1(2H)-yl)-3-((butoxyoxidophosphor-yl)oxy)tetrahydrofuran-2-yl)methyl butyl phosphate], the “mean bladder CFU burden” value in assay [1] (20 minutes post-treatment) turned out to be 2.9 log10; in assay [1] (60 minutes post-treatment), 3.7 log10 CFU. Besides, the MIC is reported as 9.38 mg/mL against P. aeruginosa (pH 1); 18.75 mg/mL with P. aeruginosa (pH 3); 37.5 mg/mL against P. aeruginosa (pH 4); 75 mg/mL in the assay with P. aeruginosa (pH 5); greater than 75 mg/mL in the assay on P. aeruginosa (pH 7).
